Measurements published in PubChem BioAssay (NCI).
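Cultured in 96-well plates, cells were exposed to test compound for 48 hours across five concentrations. GI50: concentration for 50% inhibition of growth. TGI: concentration producing complete growth inhibition.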

How the values were obtained:
Assay in all cases: NCI tumour cell line growth inhibition, 48 h
786-0 renal = system: 786-0 renal
A498 renal = system: A498 renal
A549 NSCLC = system: A549 NSCLC
ACHN renal = system: ACHN renal
BT-549 breast = system: BT-549 breast
CAKI-1 renal = system: CAKI-1 renal
CCRF-CEM leukemia = system: CCRF-CEM leukemia
COLO 205 colon = system: COLO 205 colon
DU-145 prostate = system: DU-145 prostate
EKVX NSCLC = system: EKVX NSCLC
HCC-2998 colon = system: HCC-2998 colon
HCT-116 colon = system: HCT-116 colon
HCT-15 colon = system: HCT-15 colon
HL-60(TB) leukemia = system: HL-60(TB) leukemia
HOP-62 NSCLC = system: HOP-62 NSCLC
HOP-92 NSCLC = system: HOP-92 NSCLC
HS 578T breast = system: HS 578T breast
HT29 colon = system: HT29 colon
IGROV1 ovarian = system: IGROV1 ovarian
K-562 leukemia = system: K-562 leukemia
KM12 colon = system: KM12 colon
LOX IMVI melanoma = system: LOX IMVI melanoma
M14 melanoma = system: M14 melanoma
MALME-3M melanoma = system: MALME-3M melanoma
MCF7 breast = system: MCF7 breast
MDA-MB-231 breast = system: MDA-MB-231 breast
MDA-MB-435 = system: MDA-MB-435
MDA-MB-468 breast = system: MDA-MB-468 breast
MOLT-4 leukemia = system: MOLT-4 leukemia
NCI-H226 lung = system: NCI-H226 lung
NCI-H23 lung = system: NCI-H23 lung
NCI-H460 lung = system: NCI-H460 lung
NCI-H522 lung = system: NCI-H522 lung
NCI/ADR-RES ovarian = system: NCI/ADR-RES ovarian
OVCAR-3 ovarian = system: OVCAR-3 ovarian
OVCAR-4 ovarian = system: OVCAR-4 ovarian
OVCAR-5 ovarian = system: OVCAR-5 ovarian
OVCAR-8 ovarian = system: OVCAR-8 ovarian
PC-3 prostate = system: PC-3 prostate
RPMI-8226 leukemia = system: RPMI-8226 leukemia
RXF 393 renal = system: RXF 393 renal
SF-268 CNS = system: SF-268 CNS
SF-295 CNS = system: SF-295 CNS
SF-539 CNS = system: SF-539 CNS
SK-MEL-2 melanoma = system: SK-MEL-2 melanoma
SK-MEL-28 melanoma = system: SK-MEL-28 melanoma
SK-MEL-5 melanoma = system: SK-MEL-5 melanoma
SK-OV-3 ovarian = system: SK-OV-3 ovarian
SN12C renal = system: SN12C renal
SNB-19 CNS = system: SNB-19 CNS
SNB-75 CNS = system: SNB-75 CNS
SR leukemia = system: SR leukemia
SW-620 colon = system: SW-620 colon
T-47D breast = system: T-47D breast
TK-10 renal = system: TK-10 renal
U251 CNS = system: U251 CNS
UACC-257 melanoma = system: UACC-257 melanoma
UACC-62 melanoma = system: UACC-62 melanoma
UO-31 renal = system: UO-31 renal

Question: How did the GI50 (786-0 renal) turn out when `Nc1nn2c(-c3cc4cc(Br)ccc4oc3=O)ccnc2c1N=Nc1ccccc1` was run?
Answer: 2.01 µM

Question: And the TGI (786-0 renal)?
Answer: 4.71 µM

Question: What about the GI50 (A498 renal) of the same compound?
Answer: 1.97 µM

Question: And the TGI (A498 renal)?
Answer: 6.71 µM

Question: And the GI50 (A549 NSCLC)?
Answer: 3.42 µM

Question: And the TGI (A549 NSCLC)?
Answer: 29.3 µM

Question: And the GI50 (ACHN renal)?
Answer: 3.16 µM

Question: And the TGI (ACHN renal)?
Answer: 14.4 µM

Question: And the GI50 (BT-549 breast)?
Answer: 1.92 µM

Question: What about the TGI (BT-549 breast) of the same compound?
Answer: 3.77 µM

Question: What about the GI50 (CAKI-1 renal) of the same compound?
Answer: 5.55 µM

Question: What about the TGI (CAKI-1 renal) of the same compound?
Answer: 25.2 µM

Question: And the GI50 (CCRF-CEM leukemia)?
Answer: 24.6 µM

Question: What about the TGI (CCRF-CEM leukemia) of the same compound?
Answer: > 100 µM

Question: And the GI50 (COLO 205 colon)?
Answer: 23.2 µM

Question: And the TGI (COLO 205 colon)?
Answer: > 100 µM

Question: And the GI50 (DU-145 prostate)?
Answer: 4.71 µM

Question: And the TGI (DU-145 prostate)?
Answer: > 100 µM

Question: What about the GI50 (EKVX NSCLC) of the same compound?
Answer: 3.29 µM

Question: What about the TGI (EKVX NSCLC) of the same compound?
Answer: 18 µM

Question: And the GI50 (HCC-2998 colon)?
Answer: 3.17 µM

Question: What about the TGI (HCC-2998 colon) of the same compound?
Answer: 14.8 µM

Question: What about the GI50 (HCT-116 colon) of the same compound?
Answer: 2.23 µM

Question: And the TGI (HCT-116 colon)?
Answer: 4.73 µM

Question: What about the GI50 (HCT-15 colon) of the same compound?
Answer: 4.87 µM

Question: What about the TGI (HCT-15 colon) of the same compound?
Answer: > 100 µM

Question: What about the GI50 (HL-60(TB) leukemia) of the same compound?
Answer: > 100 µM

Question: What about the TGI (HL-60(TB) leukemia) of the same compound?
Answer: > 100 µM

Question: And the GI50 (HOP-62 NSCLC)?
Answer: 1.84 µM

Question: What about the TGI (HOP-62 NSCLC) of the same compound?
Answer: 4.23 µM

Question: And the GI50 (HOP-92 NSCLC)?
Answer: 2.21 µM

Question: And the TGI (HOP-92 NSCLC)?
Answer: 6.04 µM

Question: What about the GI50 (HS 578T breast) of the same compound?
Answer: 3.11 µM

Question: And the TGI (HS 578T breast)?
Answer: 17 µM

Question: What about the GI50 (HT29 colon) of the same compound?
Answer: 3.13 µM

Question: What about the TGI (HT29 colon) of the same compound?
Answer: 11.5 µM

Question: And the GI50 (IGROV1 ovarian)?
Answer: 4.57 µM

Question: And the TGI (IGROV1 ovarian)?
Answer: 33.9 µM

Question: What about the GI50 (K-562 leukemia) of the same compound?
Answer: 26.7 µM

Question: And the TGI (K-562 leukemia)?
Answer: > 100 µM

Question: What about the GI50 (KM12 colon) of the same compound?
Answer: 3.32 µM

Question: What about the TGI (KM12 colon) of the same compound?
Answer: > 100 µM

Question: And the GI50 (LOX IMVI melanoma)?
Answer: 3.09 µM

Question: And the TGI (LOX IMVI melanoma)?
Answer: 10.7 µM

Question: And the GI50 (M14 melanoma)?
Answer: 16 µM

Question: What about the TGI (M14 melanoma) of the same compound?
Answer: > 100 µM

Question: What about the GI50 (MALME-3M melanoma) of the same compound?
Answer: 2.72 µM

Question: And the TGI (MALME-3M melanoma)?
Answer: 10.9 µM

Question: And the GI50 (MCF7 breast)?
Answer: 3.24 µM

Question: And the TGI (MCF7 breast)?
Answer: 17.5 µM

Question: What about the GI50 (MDA-MB-231 breast) of the same compound?
Answer: 1.99 µM

Question: What about the TGI (MDA-MB-231 breast) of the same compound?
Answer: 4.43 µM

Question: And the GI50 (MDA-MB-435)?
Answer: 5.31 µM

Question: And the TGI (MDA-MB-435)?
Answer: > 100 µM

Question: What about the GI50 (MDA-MB-468 breast) of the same compound?
Answer: 2.21 µM

Question: And the TGI (MDA-MB-468 breast)?
Answer: 9.7 µM

Question: And the GI50 (MOLT-4 leukemia)?
Answer: 31.8 µM

Question: And the TGI (MOLT-4 leukemia)?
Answer: > 100 µM

Question: And the GI50 (NCI-H226 lung)?
Answer: 2.16 µM

Question: And the TGI (NCI-H226 lung)?
Answer: 5.84 µM

Question: And the GI50 (NCI-H23 lung)?
Answer: 2.33 µM

Question: What about the TGI (NCI-H23 lung) of the same compound?
Answer: 5.57 µM

Question: What about the GI50 (NCI-H460 lung) of the same compound?
Answer: 1.95 µM

Question: What about the TGI (NCI-H460 lung) of the same compound?
Answer: 5.05 µM

Question: What about the GI50 (NCI-H522 lung) of the same compound?
Answer: 1.9 µM

Question: And the TGI (NCI-H522 lung)?
Answer: 4.19 µM

Question: What about the GI50 (NCI/ADR-RES ovarian) of the same compound?
Answer: 2.07 µM

Question: And the TGI (NCI/ADR-RES ovarian)?
Answer: 4.54 µM

Question: What about the GI50 (OVCAR-3 ovarian) of the same compound?
Answer: 3.24 µM

Question: What about the TGI (OVCAR-3 ovarian) of the same compound?
Answer: 23.9 µM

Question: And the GI50 (OVCAR-4 ovarian)?
Answer: 2.89 µM

Question: And the TGI (OVCAR-4 ovarian)?
Answer: 15.3 µM

Question: And the GI50 (OVCAR-5 ovarian)?
Answer: 3.29 µM

Question: What about the TGI (OVCAR-5 ovarian) of the same compound?
Answer: 15.1 µM

Question: And the GI50 (OVCAR-8 ovarian)?
Answer: 2.24 µM

Question: And the TGI (OVCAR-8 ovarian)?
Answer: 5.36 µM

Question: And the GI50 (PC-3 prostate)?
Answer: 2.92 µM

Question: And the TGI (PC-3 prostate)?
Answer: 9.32 µM

Question: What about the GI50 (RPMI-8226 leukemia) of the same compound?
Answer: 31.6 µM

Question: What about the TGI (RPMI-8226 leukemia) of the same compound?
Answer: > 100 µM

Question: And the GI50 (RXF 393 renal)?
Answer: 1.99 µM

Question: And the TGI (RXF 393 renal)?
Answer: 4.95 µM

Question: What about the GI50 (SF-268 CNS) of the same compound?
Answer: 2.12 µM

Question: And the TGI (SF-268 CNS)?
Answer: 5.66 µM

Question: What about the GI50 (SF-295 CNS) of the same compound?
Answer: 2.1 µM

Question: And the TGI (SF-295 CNS)?
Answer: 4.88 µM

Question: And the GI50 (SF-539 CNS)?
Answer: 1.99 µM

Question: And the TGI (SF-539 CNS)?
Answer: 3.88 µM

Question: What about the GI50 (SK-MEL-2 melanoma) of the same compound?
Answer: 3.96 µM

Question: And the TGI (SK-MEL-2 melanoma)?
Answer: 19.8 µM

Question: What about the GI50 (SK-MEL-28 melanoma) of the same compound?
Answer: 5.02 µM

Question: And the TGI (SK-MEL-28 melanoma)?
Answer: 22.3 µM

Question: What about the GI50 (SK-MEL-5 melanoma) of the same compound?
Answer: 2.71 µM

Question: And the TGI (SK-MEL-5 melanoma)?
Answer: 8.1 µM

Question: And the GI50 (SK-OV-3 ovarian)?
Answer: 1.87 µM

Question: What about the TGI (SK-OV-3 ovarian) of the same compound?
Answer: 3.95 µM

Question: And the GI50 (SN12C renal)?
Answer: 1.91 µM

Question: And the TGI (SN12C renal)?
Answer: 4.92 µM

Question: And the GI50 (SNB-19 CNS)?
Answer: 1.94 µM

Question: What about the TGI (SNB-19 CNS) of the same compound?
Answer: 4.26 µM

Question: And the GI50 (SNB-75 CNS)?
Answer: 1.29 µM

Question: And the TGI (SNB-75 CNS)?
Answer: 3.18 µM

Question: And the GI50 (SR leukemia)?
Answer: 5.38 µM

Question: And the TGI (SR leukemia)?
Answer: > 100 µM

Question: And the GI50 (SW-620 colon)?
Answer: 6.24 µM

Question: And the TGI (SW-620 colon)?
Answer: > 100 µM

Question: And the GI50 (T-47D breast)?
Answer: 2.79 µM

Question: And the TGI (T-47D breast)?
Answer: 13.2 µM

Question: And the GI50 (TK-10 renal)?
Answer: 12.7 µM

Question: What about the TGI (TK-10 renal) of the same compound?
Answer: 37.2 µM

Question: What about the GI50 (U251 CNS) of the same compound?
Answer: 2.01 µM

Question: What about the TGI (U251 CNS) of the same compound?
Answer: 4.4 µM

Question: What about the GI50 (UACC-257 melanoma) of the same compound?
Answer: 11.8 µM

Question: And the TGI (UACC-257 melanoma)?
Answer: 40.9 µM

Question: What about the GI50 (UACC-62 melanoma) of the same compound?
Answer: 5.52 µM

Question: And the TGI (UACC-62 melanoma)?
Answer: 22.1 µM

Question: And the GI50 (UO-31 renal)?
Answer: 11.1 µM

Question: And the TGI (UO-31 renal)?
Answer: 86.6 µM
